16 molecules from patent US12600712B2 (Hoffmann-La Roche Inc., priority 2020, dated 2026) can be followed below.

The assay addresses T1, human Autotaxin (ATX) (Homo sapiens, UniProt Q13822).
T1 construct: used as template in overlapping PCR to generate a full length human ENPP2 ORF with or without a 3′-6×His tag; 6xHis (C); made in house; host or cells: FreeStyle 293-F cells (transient transfection, protein purified from culture supernatant)
Kind of assay: Human ATX enzyme inhibition assay (LPC substrate, choline oxidase/HRP/Amplex Red coupled format). Format: biochemical. The following applies: recombinant hATX 1 nM, 18:1 LPC 30 μM, fluorescence at 90 min minus 5 min. As for the experimental part: Human ATX Enzyme Inhibition Assay
To identify inhibitors of the human Autotaxin (ATX) enzyme an in-vitro biochemical profiling assay has been developed using lysophosphatidylcholine (LPC) as substrate and recombinant enzyme. ATX activity is assayed via a coupled enzyme format where choline produced from LPC hydrolysis is converted to hydrogen peroxide by choline oxidase (CO). Hydrogen peroxide is in turn used as a co-substrate by horseradish peroxidase (HRP) to oxidise Amplex Red® and generate the red-fluorescent product, Resorufin.
50 mM Tris-HCl (pH 8.0); 120 mM NaCl; 20 mM CaCl2); 5 mM KCl; 1 mM MgCl2; 0.01% Triton X-100, sterile-filtered and stored at 4° C.
50 mM Tris-HCl (pH 8.0); 150 mM NaCl human Autotaxin (hATX): 0.97 mg/ml (9.718 μM) Molecular weight 99817. Working solution of 1.5 μM used in this assay.
100 mM 18:1 LPC dissolved in reagent dilution-buffer.
500 U/ml Choline Oxidase in reagent dilution buffer.
2540 U/ml Horseradish Peroxidase, in reagent dilution buffer (10.95 mg/ml).
20 mM Amplex Red (10-Acetyl-3,7-dihydroxy-phenoxazin) in DMSO.
Black, 384-well plate, black with clear bottom, non-treated surface.
Test compounds are received pre-diluted in DMSO as an 11-point concentration-response (0.5 mM highest concentration; 1 in 3.162 dilution). Test compounds are pre-diluted 1:1 (10 μL compound+10 μL assay buffer) in a 96-well conical bottomed plate prior to use.
ATX is diluted to 2.2 nM in assay buffer. Choline oxidase and horseradish peroxidase are diluted to 7.3 U/ml and 14.7 U/ml, respectively. 18:1 LPC and Amplex Red® are diluted to 110 μM and 183.3 μM, respectively (solution protected from light). 2.2 μL of compound pre-dilution or 50% DMSO is added to the reaction plate followed by 25 μL of ATX or assay buffer (negative control). Assay plate is mixed and incubated at room temperature for 10 mins. 15 μL of choline oxidase/horseradish peroxidase is then added. To initiate the reaction 15 μL of LPC 18:1/Amplex Red is added. Assay plate is mixed and incubated at room temperature in the dark. Fluorescence is measured at 5 mins (for background subtraction) and 90 mins.
• hATX: 1 nM • 18:1 LPC: 30 μM • Choline Oxidase: 2 U/ml • Horse Radish Peroxidase: 4 U/ml • Amplex Red®: 50 μM • DMSO: 2%
Fluorescence at 5-minutes is subtracted from the 90-minute end point data and normalized with respect to the positive control. IC50 values are calculated.
Results in the enzymatic ATX inhibition assay are provided for compounds of formula (I).

Consider `O=C(c1cnc(NC2Cc3cc(Cl)cc(F)c3C2)nc1)N1CCC12COC2` (racemic) [Example 8, (2-((6-chloro-4-fluoro-2,3-dihydro-1H-inden-2-yl)amino)pyrimidin-5-yl)(6-oxa-1-azaspiro[3.3]heplan-l-yl)melhanone], for which the half-maximal inhibitory concentration (IC50) is 111 nM.
The result for `O=C(c1cnc(NC2Cc3cc(Cl)cc(F)c3C2)nc1)N1CCC12COC2` (single isomer, unassigned) [Example 16, (S or R)-(2-((6-chloro-4-fluoro-2,3-dihydro-1H-inden-2-yl)amino)pyrimidin-5-yl)(6-oxa-1-azaspiro[3.3]heptan-1-yl)methanone] reads 45.1 nM; that for `O=C(c1cnc(NC2Cc3cc(Cl)cc(Cl)c3C2)nc1)N1CCC12COC2` (stereo not shown) [Example 1], 13 nM.
For the molecule `Cc1cc(Cl)cc2c1CC(Nc1ncc(C(=O)N3CCC34COC4)cn1)C2` (stereo not shown) [Example 2, (2-((6-chloro-4-methyl-2,3-dihydro-1H-inden-2-yl)amino)pyrimidin-5-yl)(6-oxa-1-azaspiro[3.3]heptan-1-yl)methanone], the IC50 worked out at 62 nM.
Then `O=C(c1cnc(NC2Cc3ccc(Cl)c(Cl)c3C2)nc1)N1CCC12COC2` (stereo not shown) [Example 3, (2-((4,5-dichloro-2,3-dihydro-1H-inden-2-yl)amino)pyrimidin-5-yl)(6-oxa-1-azaspiro[3.3]heptan-1-yl)methanone], with 128 nM; and `N#Cc1cc(Cl)cc2c1CC(Nc1ncc(C(=O)N3CCC34COC4)cn1)C2` (stereo not shown) [Example 4, 2-((5-(6-oxa-1-azaspiro[3.3]heptane-1-carbonyl)pyrimidin-2-yl)amino)-6-chloro-2,3-dihydro-1H-indene-4-carbonitrile], with 20.8 nM.
Then `O=C(c1cnc(NC2Cc3cc(Cl)cc(OC(F)F)c3C2)nc1)N1CCC12COC2` (stereo not shown) [Example 5], with 224 nM.
The result for `Cc1c(Cl)ccc2c1CC(Nc1ncc(C(=O)N3CCC34COC4)cn1)C2` (stereo not shown) [Example 6] reads 101 nM; that for `CC#Cc1cc(Cl)cc2c1CC(Nc1ncc(C(=O)N3CCC34COC4)cn1)C2` (stereo not drawn) [Example 7, (2-((6-chloro-4-(prop-l-yn-1-yl)-2,3-dihydro-lH-inden-2-yl)amino)pyrimidin-5-yl)(6-oxa-1-azaspiro[3.3]heplan-l-yl)methanone], 23.7 nM.
On to `O=C(c1cnc(NC2Cc3ccc(Cl)c(F)c3C2)nc1)N1CCC12COC2` (stereo not drawn) [Example 9, (2-((5-chloro-4-fluoro-2,3-dihydro-lH-inden-2-yl)amino)pyrimidin-5-yl)(6-oxa-1-azaspiro[3.3]heplan-l-yl)methanone], for which the IC50 amounted to 123 nM.
Consider `O=C(c1cnc(NC2Cc3cc(Cl)cc(C(F)(F)F)c3C2)nc1)N1CCC12COC2` (stereo not shown) [Example 10, (2-((6-chloro-4-(trifluoromethyl)-2,3-dihydro-1 H-inden-2-yl)amino)pyrimidin-5-yl)(6-oxa-1-azaspiro[3.3]heptan-1-yl)melhanone], for which the IC50 is 184 nM.
`N#Cc1cc(Cl)cc2c1C[C@@H](Nc1ncc(C(=O)N3CCC34COC4)cn1)C2` [Example 11, (S)-2-((5-(6-oxa-1-azaspiro[3.3]heptane-1-carbonyl)pyrimidin-2-yl)amino)-6-chloro-2,3-dihydro-1H-indene-4-carbonitrile]: the IC50 was 7.4 nM.
For the molecule `CC1(C)CCN1C(=O)c1cnc(N[C@H]2Cc3cc(Cl)cc(C#N)c3C2)nc1` [Example 12, (S)-6-chloro-2-((5-(2,2-dimethylazetidine-1-carbonyl)pyrimidin-2-yl)amino)-2.3-dihydro-1H-indene-4-carbonitrile], the IC50 was determined as 6.5 nM.
The result for `N#Cc1cc(Cl)cc2c1C[C@@H](Nc1ncc(C(=O)N3CCC34CC(F)(F)C4)cn1)C2` [Example 13, (S)-6-chloro-2-((5-(6,6-difluoro-1-azaspiro[3.3]heptane-1-carbonyl)pyrimidin-2-yl)amino)-2,3-dihydro-1H-indene-4-carbonitrile] reads 3 nM; that for `C[C@]1(O)C[C@]2(CCN2C(=O)c2cnc(N[C@H]3Cc4cc(Cl)cc(C#N)c4C3)nc2)C1` [Example 14, (cis)-6-chloro-2-(S)-((5-(6-hydroxy-6-methyl-1-azaspiro[3.3]heptane-1-carbonyl)pyrirnidin-2-yl)amino)-2,3-dihydro-1H-indene-4-carbonitrile], 5.5 nM.
For the molecule `O=C(c1cnc(NC2Cc3cccc(Cl)c3C2)nc1)N1CCC12COC2` (stereo not shown) [Example 15, (2-((4-chloro-2,3-dihydro-1H-inden-2-yl)amino)pyrimidin-5-yl)(6-oxa-1-azaspiro[3.3]heptan-1-yl)methanone], the IC50 stood at 282 nM.

What is called IC50 is the concentration that inhibits the measured activity by half.
